{
  "source": "patent US7169907B2",
  "about": "“Derivatives, immunogens, and antibodies for detecting ecstasy-class drugs” (Roche Diagnostics Operations, Inc., priority 2002, dated 2007)",
  "data": [
    {"tested_on": "antibody NEAMP-1.3", "test": "Cross-reactivity assay (competitive ELISA) of antibody NEAMP-1.3", "assay_type": "binding, mice", "conditions": "ED50 of standard divided by ED50 of drug, times 100", "method": "(§1) By determining the drug concentration that results in a 50% reduction in binding (ED 50) of a standard, methamphetamine, dividing by the ED50 of each other drug, and then multiplying the result by 100, the percent cross-reactivities shown in Table 2 can be calculated.\nMicroplates were coated with 100 μL Methamphetamine-BSA conjugate 28 and separate plates with 100 μL N-ethylamphetamine-BSA 26 (Q=BSA, 26b) at 1 μg/mL in 0.1 M carbonate buffer, pH 9.5 for 1 hour at 37° C. (humidified).\nA criterion for selection was binding to the Methamphetamine-BSA conjugate 28. Table 5 presents binding data for a portion of the screening of the Meth-BSA 28 and NEAMP-BSA 26 (Q=BSA, 26b) coated plates.\nSupernatants are subjected to serial dilutions and re-tested in the ELISA screen above. The dilution providing for about a 50% reduction from the maximum OD is chosen for proceeding to cross-reactivity testing. This consists of repeating the preceding assay with the antibody at the chosen dilution and in the presence of varying concentrations of drugs.", "units": {"Percent Cross-Reactivity": "%"}, "values": [
      {"smiles": "CN[C@@H](C)[C@H](O)c1ccccc1", "note": "[I-ephedrine]", "Percent Cross-Reactivity": 6.7},
      {"smiles": "C[C@H](N)Cc1ccccc1", "note": "[d-AMP, d-amphetamine]", "Percent Cross-Reactivity": 32.5},
      {"smiles": "CN[C@@H](C)Cc1ccccc1", "note": "[d-MAMP, d-methamphetamine]", "Percent Cross-Reactivity": 100},
      {"smiles": "C[C@H]1[C@H](c2ccccc2)OCCN1C", "note": "[Phendimetrazine]", "Percent Cross-Reactivity": 0.6},
      {"smiles": "CN[C@@H](C)[C@@H](O)c1ccccc1", "note": "[Pseudoephedrine, pseudoephedrine]", "Percent Cross-Reactivity": 2.0},
      {"smiles": "CNC(C)Cc1ccc2c(c1)OCO2", "note": "(stereo not drawn) [MDMA, 3,4-methylenedioxy-N-methylamphetamine]", "Percent Cross-Reactivity": 114},
      {"smiles": "CCC(Cc1ccc2c(c1)OCO2)NC", "note": "(stereo not drawn) [MBDB, 3,4-methylenedioxyphenyl-N-methylbutanamine]", "Percent Cross-Reactivity": 20},
      {"smiles": "CCNC(C)Cc1ccc2c(c1)OCO2", "note": "(stereo not drawn) [MDEA, 3,4-methylenedioxy-N-ethylamphetamine]", "Percent Cross-Reactivity": 507}
    ]},
    {"tested_on": "antibody MDMA-2.1.1", "test": "Cross-reactivity assay (competitive ELISA) of antibody MDMA-2.1.1", "assay_type": "binding, mice", "conditions": "ED50 of standard divided by ED50 of drug, times 100", "description": "as §1\nSupernatants are subjected to serial dilutions and re-tested in the ELISA screen above. The dilution providing for about a 50% reduction from the maximum OD is chosen for proceeding to cross-reactivity testing. This consists of repeating the preceding assay with the antibody at the chosen dilution and in the presence of varying concentrations of drugs. The charts shown in FIG. 5 and FIG. 6 present the results of such determinations.", "units": {"% Cross-reactivity": "%"}, "values": [
      {"smiles": "CN[C@@H](C)Cc1ccc2c(c1)OCO2", "note": "[d-MDMA]", "% Cross-reactivity": 100}
    ]}
  ]
}
